Experiments:
[1] = Particle size distribution of ilaprazole lots (Sympatec HELOS, low-angle laser light scattering); format: physicochemical; details: nitrogen pressure 2 bar
Experimental: The two lots of ilaprazole active ingredient were analyzed using a Sympatec HELOS particle size system with a RODOS dry powder disperser. This instrument operates using low-angle laser light scattering analyzed by Fraunhofer diffraction theory. Aliquots of approximately 0.5 g were fed into the instrument from a vibrating tray into a jet of nitrogen gas. After flowing through an interaction tube, an aerosol was formed in the path of a laser beam. The angle and intensity of diffracted light was then measured to determine the particle size distribution. As part of the method development, the particle size distribution was measured as a function of nitrogen gas pressure, and a pressure of 2 bar was determined to adequately break apart loosely adhered particles without significant milling of the sample. The results are shown below in Table 1 and in FIG. 1. The particle sizes are listed as x10, x50 and x90, the diameter where 10%, 50% and 90% of the volume of the material is in a particle smaller than the listed size.

[2] = acid or neutral conditions; known in the art; cited from earlier work

| x10 Mean ([1]; diameter where 10% of the volume of the material is in a particle smaller than the listed size) [μm] | x50 Mean ([1]; diameter where 50% of the volume of the material is in a particle smaller than the listed size) [μm] | x90 Mean ([1]; diameter where 90% of the volume of the material is in a particle smaller than the listed size) [μm] | Compound | stability [2] |
| --- | --- | --- | --- | --- |
| 1.01 | 3.74 | 14.79 | COc1ccnc(C[S+]([O-])c2nc3cc(-n4cccc4)ccc3[nH]2)c1C (stereo not shown) [Lot A, ilaprazole] |  |
|  |  |  | COc1ccnc(C[S+]([O-])c2nc3cc(-n4cccc4)ccc3[nH]2)c1C (stereo not shown) [ilaprazole, 2-[[(4-methoxy-3-methyl)-2-pyridyl]methylsufinyl]-5-(1H-pyrrol-1-yl)benzimidazole] | unstable under acid or neutral conditions |

Reference: patent publication US20080050444A1, “Pharmaceutical compositions of ilaparazole” (priority 2005, published 2008)
